Test system: CN0375-F725-PDC KRAS spheroid viability
Test: Anticancer human tumor CN0375-F725-PDC patient-derived colon carcinoma cell line growth inhibition [KRAS2]
Conditions: spheroids with HUVEC and MSC; for IC50: curve of first compound; for viability, T/C: stronger effect = lower value
How it was run: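 Combination screen of spheroid viability in tumor-cell co-cultures with endothelial (HUVEC) and mesenchymal stem cell stroma. Each agent was tested in half-log dilutions, topping at clinical Cmax or at 10 microM without a known Cmax.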
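Also: spheroids exposed to agents for 7 days.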

CN(C)C/C=C/C(=O)Nc1cc2c(Nc3ccc(F)c(Cl)c3)ncnc2cc1O[C@H]1CCOC1 + COc1cc2nc(C)nc(NC(C)c3cc(N)cc(C(F)(F)F)c3)c2cc1OC1CCOC1
IC50 (second compound 0.1 µM): > 100 nM | IC50 (second compound 0.316 µM): > 100 nM | IC50 (second compound 1 µM): > 100 nM | IC50 (second compound 3.16 µM): > 100 nM | IC50 (second compound 10 µM): > 100 nM | viability, T/C (second compound 0.1 µM, first compound 0.000316 µM): 102% | viability, T/C (second compound 0.1 µM, first compound 0.001 µM): 92.6% | viability, T/C (second compound 0.1 µM, first compound 0.00316 µM): 85.7% | viability, T/C (second compound 0.1 µM, first compound 0.01 µM): 83.7% | viability, T/C (second compound 0.1 µM, first compound 0.0316 µM): 84.8% | viability, T/C (second compound 0.1 µM, first compound 0.1 µM): 77.9% | viability, T/C (second compound 0.316 µM, first compound 0.000316 µM): 96% | viability, T/C (second compound 0.316 µM, first compound 0.001 µM): 92.5% | viability, T/C (second compound 0.316 µM, first compound 0.00316 µM): 86.4% | viability, T/C (second compound 0.316 µM, first compound 0.01 µM): 85.7% | viability, T/C (second compound 0.316 µM, first compound 0.0316 µM): 78.1% | viability, T/C (second compound 0.316 µM, first compound 0.1 µM): 79.3% | viability, T/C (second compound 1 µM, first compound 0.000316 µM): 91.9% | viability, T/C (second compound 1 µM, first compound 0.001 µM): 94.6% | viability, T/C (second compound 1 µM, first compound 0.00316 µM): 87.3% | viability, T/C (second compound 1 µM, first compound 0.01 µM): 82.7% | viability, T/C (second compound 1 µM, first compound 0.0316 µM): 81.6% | viability, T/C (second compound 1 µM, first compound 0.1 µM): 78.1% | viability, T/C (second compound 3.16 µM, first compound 0.000316 µM): 77.3% | viability, T/C (second compound 3.16 µM, first compound 0.001 µM): 71.5% | viability, T/C (second compound 3.16 µM, first compound 0.00316 µM): 71.8% | viability, T/C (second compound 3.16 µM, first compound 0.01 µM): 66.1% | viability, T/C (second compound 3.16 µM, first compound 0.0316 µM): 66.5% | viability, T/C (second compound 3.16 µM, first compound 0.1 µM): 65.8% | viability, T/C (second compound 10 µM, first compound 0.000316 µM): 65.5% | viability, T/C (second compound 10 µM, first compound 0.001 µM): 70.1% | viability, T/C (second compound 10 µM, first compound 0.00316 µM): 68.2% | viability, T/C (second compound 10 µM, first compound 0.01 µM): 47% | viability, T/C (second compound 10 µM, first compound 0.0316 µM): 60.6% | viability, T/C (second compound 10 µM, first compound 0.1 µM): 63.7%

From PubChem BioAssay AID1963860 (Molecular Pharmacology Branch, DTP, NCI, 2024)
